Results: patent publication EP4335865A1, “INTERACTION BETWEEN A GLYCOLIPID AND MAJOR CAPSID PROTEIN (VP1) OF SHEEP POLYOMAVIRUS AND, METHODS, KITS AND USES THEREOF” (Eberhard-Karls-Universität Tübingen, priority 2022, dated 2024)

Assays:
[1] = target: human Gal-9 carbohydrate recognition domain (CRD) (Homo sapiens, UniProt O00182); conditions: carbohydrate library screening, reference 62; cited from earlier work
ShPyV VP1 [2] = test: Saturation-transfer difference (STD) NMR in solution; type: binding, sheep polyomavirus (ShPyV); conditions: 1 mM Forssman pentaose and 1 mM 6'SL in presence of 20 µM ShPyV VP1, 298 K
From the text: To assess whether the interaction of ShPyV VP1 to Forssman pentaose (FP), the glycan portion of Forssman glycolipid, also occurs in a more physiologic setting (i.e., in solution), the inventors conducted a saturation-transfer difference (STD) NMR experiment. […] Thereby, the protein resonances remain invisible. 59,60 The inventors recorded the STD-NMR resonances from a sample comprising VP1 and the oligosaccharides Forssman pentaose and 6sialyllactose (6'SL) as ligands, for which the inventors also provide reference spectra (Fig. 2B-C). […] Since excitation transfer heavily falls off with distance, VP1 is expected to contact an extensive portion of FP during the binding event.
All nuclear magnetic resonance (NMR) data were collected in a Bruker AVIII-600 MHz spectrometer equipped with a TXI-z probe head at 298 K. The inventors performed the experiments using 3 mm NMR tubes. Samples were provided in 99 % D2O-PBS containing 20 mM KH2PO4/K2HPO4 (pH 7.4) and 150 mM NaCl. Initially, ^1H reference spectra of isolate oligosaccharides samples (4 mM Forssman pentaose and 2 mM 6'SL, respectively) were recorded. Subsequently, the ^1H resonances of a sample comprising 1 mM Forssman pentaose and 1 mM 6'SL in presence of 20 µM ShPyV VP1 were collected. From the same sample, the saturation difference transfer (STD) NMR experiment was performed. […]

ShPyV VP1 [3] = test: Crystallographic affinity determination (glycan dilution series in VP1 crystals); type: binding, sheep polyomavirus (ShPyV); conditions: approximate; integrated FP electron density vs concentration, Michaelis-Menten approach; 10 mM down to 0.0195 mM FP; read-out: dissociation constant between VP1 and FP (crystallographic, Kdc)
From the text: Due to the costliness of Forssman glycans, conventional biophysical affinity determination techniques were not applied. To still establish an approximate dissociation constant value, the inventors derivatize isomorphous ShPyV VP1 crystals with serially diluted Forssman pentaose (FP) solution and collect the diffraction data.
To approximate the affinity towards FA pentaose (FP) the inventors prepared a glycan dilution series in VP1 crystals, an approach that was successfully utilized in the past. [16,23]_VP1 crystals were grown as described above. The reference soaking solution (10 mM FP in 150 mM KSCN, 20 % (w/v) PEG 3,350 and 20 % (v/v) MPD) was diluted using 1:2 steps down to a final concentration of 0.0195 mM. Distinct crystals and equal soaking times were used for the parallel derivatization with FP at the different concentrations. Data collection was performed as described above. For processing, the unit cell constants of all data sets were treated as isomorphous. All diffraction intensities were scaled against the 10 mM FP reference data set using scaleit. A single structure solution was sufficient for all data sets. A VP1 model lacking all water and carbohydrate atoms, and a control tripeptide (AA 143-145) in all chains, was used for simulated annealing refinement (Phenix). […]

[4] = system: major capsid protein VP1 of sheep polyomavirus (ShPyV); test: Glycan microarray screening of recombinant VP1; type: binding; conditions: broad spectrum glycan microarray of over 900 different carbohydrate structures
From the text: To identify potential attachment factors of sheep polyomavirus (ShPyV), the inventors subjected the recombinantly expressed major capsid protein VP1 to broad spectrum glycan microarray screening of over 900 different carbohydrate structures (Fig. 1A). […] Among the four strongest reliable signals in the glycan array, which are depicted in figure 1, two stem from glycans carrying α→6 linked sialic acids, which are 9-O-Acetyl-N-acetylneuraminic acid (Neu5,9Ac) and N-glycolyl-neuraminic acid (Neu5Gc).
Among all carbohydrates in the glycan array the Forssman glycolipid is the only probe that features the Forssman disaccharide GalNAcα→3GalNAcβ.

ShPyV VP1 [5] = test: Derivatization of VP1 crystals with oligosaccharides and structure solution; type: binding, sheep polyomavirus (ShPyV); conditions: crystals soaked with oligosaccharide (10 mM globo-N-tetraose)
From the text: The inventors presume that the Forssman disaccharide GalNAcα^5→3GalNAc^4, which promotes the hydrophobic interactions to VP1, is the main determinant for tropism. To corroborate this hypothesis, the inventors derivatized ShPyV VP1 crystals with globo-N-tetraose (Gb4), the glycan of the globoseries P antigen and molecular precursor of FP, and determined the structure of the complex (Table S2).
Additionally, the structural elucidation of the VP1-FP complex allows for the superposition of the epitopes of other aGalNAc antigens such as A (GalNAcα→3(Fucα→2)Gal-R) and Tn (GalNAcα→O-Ser/Thr) into the identified Forssman binding site.
Purified ShPyV VP1 was concentrated to 3.5 mg/ml. Crystallization droplets were set up comprising 1 µl protein and 1 µl reservoir solution (150 mM KSCN and 20 % (w/v) PEG 3,350). The droplets were equilibrated against the 500 µl reservoir using the hanging drop vapor diffusion method at 20 °C. For ligand derivatization, VP1 crystals were soaked in crystallization solution supplemented with the respective oligosaccharides (10 mM FA pentaose, 10 mM globo-N-tetraose, 5 mM FA pentaose + 20 mM 3'SLN, and 5 mM pentaose + 20 mM 6'SLN), at 20 °C for half an hour. Prior to flash freezing, crystals were transferred to soaking solutions supplemented with 20 % (v/v) MPD for cryo-protection. X-ray diffraction experiments were performed using the Swiss Light Source (SLS) beamline X06DA at the PSI (Villigen, Switzerland). Data were collected at a wavelength of 1 Å and an excitation time and angle of 0.1 s and 0.1° per image, respectively. All carbohydrates were purchased from Carbosynth, UK.
X-ray diffraction images were integrated and scaled using XDS software. For each data set, 2000-3000 reflections were reserved as a test set for structure validation. Phases were determined by molecular replacement using the native sheep polyomavirus VP1 structure as search model (PDB ID 6Y61) in PHASER (CCP4). […]

[6] = system: FORS+ cell binding by HPA; test: Inhibition assay of HPA binding to ovine blood cells; type: cell-based, sheep; conditions: exceeding amounts of trisaccharide inhibitor (Fig. 5C)
Procedure: The inventors also examine the engagement of FORS- human erythrocytes by ShPyV VP1 and compare the results to HPA, which is a commonly used indicator for aberrant glycosylation in cancerogenesis. […] In contrast, FORS+ cell binding by HPA is inhibited by exceeding amounts of both F-tri and A-tri (Fig. 5C).
Erythrocytes from defibrinated blood were diluted into FACS buffer (1× PBS + 2 % FCS) to a density of 10×10^6 cells / mL. Samples of 1×10^6 cells were incubated with labeled protein at room temperature for 30 minutes with occasional shaking. Samples were then directly transferred to the flow cytometer (LSR II, BD Biosciences). Singlet cells were gated and the fluorescent population was captured at […]. M1/87-FITC (Santa Cruz Biotechnology) and HPA Alexa Fluor™ 488 conjugate (Invitrogen), respectively were used as references. Defibrinated sheep and bovine blood were purchased from TCS Biosciences Ltd and BioTrading Benelux B.V., respectively.

Sequence of human Gal-9 carbohydrate recognition domain (CRD) (O00182 1-148 limits assumed): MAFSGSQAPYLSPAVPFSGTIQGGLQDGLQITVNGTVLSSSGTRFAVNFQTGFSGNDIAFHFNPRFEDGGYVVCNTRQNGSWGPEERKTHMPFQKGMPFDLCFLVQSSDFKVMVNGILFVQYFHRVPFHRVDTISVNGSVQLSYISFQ

Molecule	glycan array response (binding to VP1) [4]	also measured
CC(=O)N[C@H]1[C@@H](O[C@H]2[C@@H](O)[C@@H](CO)O[C@@H](O[C@H]3[C@@H](O)[C@@H](CO)O[C@H](O[C@@H]4[C@H](O)[C@@H](O)[C@H](O[C@H]5[C@H](O)[C@@H](O)C(O)O[C@@H]5CO)O[C@@H]4CO)[C@@H]3O)[C@@H]2NC(C)=O)O[C@H](CO)[C@H](O)[C@@H]1O (stereo partly shown) [FP, GalNAcα^5→3GalNAcβ^4→3Galα^3→4Galβ^2→4Glc^1]		Kd [1]: 0.3 µM; STD-NMR binding to VP1 (ShPyV VP1 [2]): binding of FP to VP1; Kd (ShPyV VP1 [3]): ~38.2 µM
GalNAcα→O-Ser/Thr [Tn antigen]	no significant binding	
CC(=O)N[C@H]1[C@H]([C@H](O)[C@H](O)CO)O[C@@](OC[C@H]2O[C@@H](O[C@H]3[C@H](O)[C@@H](O)[C@H](O)O[C@@H]3CO)[C@H](O)[C@@H](O)[C@H]2O)(C(=O)O)C[C@@H]1O [6'SL, 6'sialyllactose]		STD-NMR binding to VP1 (ShPyV VP1 [2]): signal of a third methyl group in the STD-NMR spectrum manifests as the only transferred resonance
GTic oligosaccharide	relatively weak	
CC(=O)NC1C(OC2C(O)C(CO)OC(OC3C(CO)OC(OC4C(CO)OC(O)C(O)C4O)C(O)C3O)C2O)OC(CO)C(O)C1O (stereo not shown) [Gb4, globo-N-tetraose]		ligand electron density / binding in derivatized VP1 crystals (ShPyV VP1 [5]): negligible binding affinity
GalNAcα→3(Fucα→2)Gal-R [A antigen]	no significant binding	
Galβ→3-Tn [T antigen]		ligand electron density / binding in derivatized VP1 crystals (ShPyV VP1 [5]): unliganded VP1 pentamers
GM1 pentaose	relatively weak	
CC(=O)N[C@H]1[C@H]([C@H](O)[C@H](O)CO)O[C@](OC[C@H]2O[C@@H](O[C@H]3[C@H](O)[C@@H](NC(C)=O)C(O)O[C@@H]3CO)[C@H](O)[C@@H](O)[C@H]2O)(C(=O)O)C[C@@H]1O (stereo partly shown) [6'sialyllactosamine]	relatively weak	
GalNAcα1→3GalNAcβ1→3Galα1→4Galβ1→4Glcβ1->1Cer [Forssman glycolipid]	surprisingly strong response	
CC(=O)N[C@H]1C(O)O[C@H](CO[C@@H]2O[C@H](CO)[C@H](O)[C@H](O)[C@H]2O)[C@H](O)[C@@H]1O (stereo partly shown) [Galβ-6GalNAc disaccharide, Galβ-6GalNAc]	relatively strong signal	
CC(=O)N[C@H]1[C@@H](O[C@H]2[C@@H](O)[C@@H](CO)O[C@@H](O)[C@@H]2O[C@@H]2O[C@@H](C)[C@@H](O)[C@@H](O)[C@@H]2O)O[C@H](CO)[C@H](O)[C@@H]1O [A antigen trisaccharide]		inhibition of FORS+ cell binding by HPA [6]: inhibited; ligand electron density / binding in derivatized VP1 crystals (ShPyV VP1 [5]): unliganded VP1 pentamers
GD3 tetraose	relatively weak	
